Test results taken from patent US12643855B2, “Fluorogenic dimer compound, useful as a probe for detection of endogenous receptors” (UNIVERSITE DE STRASBOURG, priority 2020, dated 2026).

Experiments:
Format in all cases: physicochemical
[1] = Absorption and fluorescence spectroscopy, DY647 dimers (Examples 2 and 3); conditions: for λem, position of the emission maximum: excitation 600 nm; for Fluorescence turn-on: ratio of quantum yields in EtOH to that in water (200 nM), DY647 dimers
Protocol: Absorption spectra were recorded on a Shimadzu UV-2700i spectrophotometer and fluorescence spectra on a Horiba Fluoromax 4 spectrofluorometer. Fluorescence emission spectra were systematically recorded at 600 nm excitation wavelength at 20° C. All fluorescence spectra were corrected for instrumental effects. Fluorescence quantum yields (QY) were measured using DID in MeOH as a reference (QY=33%).^[ref] Turn-ON were calculated as a ratio of QY of compounds in EtOH to QY in water. • Ref I. Texier, et al., J. Biomed. Opt. 2009, 14, 054005.

[2] = Absorption and fluorescence spectroscopy of mCy5.5-PEG and dCy5.5-PEG in solvents of different polarities (Example 1); conditions: for λem, position of the emission maximum: excitation 630 nm, 20° C.; for Difference in QY between organic solvents and water (turn-on response): QY in organic solvents vs water; for Fluorescence maxima: in organic solvents
Excerpt: All fluorescence spectra were corrected for instrumental effects. […] To confirm the formation of the intramolecular dimer, the absorption spectra of two dyes were compared. […] This new band can be assigned to the non-fluorescent intramolecular dimer of the H-aggregate type, which is highly favored in aqueous medium. […] As a consequence, dCy5.5-PEG presented excellent fluorogenic properties, with up to 140-fold higher QY in organic solvents than in water. […] As the absorption spectrum of dCy5.5-PEG in the open form (in MeOH) is the same as that of the cyanine 2, the extinction coefficient of the dimer should be ca double of the monomer. The extinction coefficient for the cyanine 2, was measured to be 222 000 M^−1 cm^−1 in MeOH, which allows estimation of the extinction coefficient for the dimer dCy5.5-PEG: 222 000 M^−1 cm^−1×2=444 000 M^−1 cm^−1. Then, given its strong QY (56% in DMF), dCy5.5-PEG appears to be one of the brightest fluorogenic NIR dyes reported to date.

[3] = Absorption and fluorescence spectroscopy, Cy5.5 dimers (Examples 2 and 3); conditions: for λem, position of the emission maximum: excitation 630 nm
Protocol: (§1) Absorption spectra were recorded on a Shimadzu UV-2700i spectrophotometer and fluorescence spectra on a Horiba Fluoromax 4 spectrofluorometer. Fluorescence emission spectra were systematically recorded at 630 nm excitation wavelength at 20° C. All fluorescence spectra were corrected for instrumental effects. Fluorescence quantum yields (QY) were measured using Rhodamine 800 in EtOH as a reference (QY=25%).^[ref] Turn-ON were calculated as a ratio of OY of compounds in EtOH to OY in water. • Ref A. Alessi, M. Salvalaggio, G. Ruzzon, J. Lumin. 2013, 134, 385-389. DY647 Dimers
as §1, with “QY” for “OY”

Structure (SMILES): COCC[N+]1=C(/C=C/C=C/C=C2/N(CCCCCC(=O)NCCCC[C@H](NC(=O)CCCCCN3/C(=C/C=C/C=C/C4=[N+](CCOC)c5ccc(S(=O)(=O)O)cc5C4(C)C)C(C)(C)c4cc(S(=O)(=O)[O-])ccc43)C(=O)NCCOCCOCCNC(=O)CCC(=O)NCCOCCOCCNC(=O)CCC(=O)OC(C)(C)C)c3ccc(S(=O)(=O)[O-])cc3C2(C)C)C(C)(C)c2cc(S(=O)(=O)O)ccc21 [A]
- QY, fluorescence quantum yield ([1]; Acetone): 3.4%
- λabs, position of the absorption maximum ([1]; Acetone): 661 nm
- λem, position of the emission maximum ([1]; Acetone): 684 nm
- QY, fluorescence quantum yield ([1]; Acetonitrile): 19.8%
- λabs, position of the absorption maximum ([1]; Acetonitrile): 656 nm
- λem, position of the emission maximum ([1]; Acetonitrile): 678 nm
- QY, fluorescence quantum yield ([1]; EtOH): 31.1%
- λabs, position of the absorption maximum ([1]; EtOH): 654 nm
- λem, position of the emission maximum ([1]; EtOH): 676 nm
- QY, fluorescence quantum yield ([1]; H2O): 4.1%
- λabs, position of the absorption maximum ([1]; H2O): 647 nm
- λem, position of the emission maximum ([1]; H2O): 671 nm
- QY, fluorescence quantum yield ([1]; MeOH): 28.2%
- λabs, position of the absorption maximum ([1]; MeOH): 651 nm
- λem, position of the emission maximum ([1]; MeOH): 673 nm
- Fluorescence turn-on [1]: 7.6

Structure (SMILES): COCCOCCOCCOCCOCCOCCOCCOCC[N+]1=C(/C=C/C=C/C=C2/N(CCCCCC(=O)O)c3ccc4ccccc4c3C2(C)C)C(C)(C)c2c1ccc1ccccc21.[I-] [cyanine 2, 2-((1E,3E,5E)-5-(3-(5-carboxypentyl)-1,1-dimethyl-1,3-dihydro-2H-benzo[e]indol-2-ylidene)penta-1,3-dien-1-yl)-1,1-dimethyl-3-(2,5,8,11,14,17,20,23-octaoxapentacosan-25-yl)-1H-benzo[e]indol-3-ium iodide]
- Extinction coefficient ([2]; in MeOH): 222 000 M^−1 cm^−1

Structure (SMILES): COCC[N+]1=C(/C=C/C=C/C=C2/N(CCCCCC(=O)NCCOCCOCCNC(=O)CCC(=O)NCCCC[C@H](NC(=O)CCC(=O)NCCOCCOCCNC(=O)CCCCCN3/C(=C/C=C/C=C/C4=[N+](CCOC)c5ccc(S(=O)(=O)O)cc5C4(C)C)C(C)(C)c4cc(S(=O)(=O)[O-])ccc43)C(=O)NCCOCCOCCNC(=O)CCC(=O)NCCOCCOCCNC(=O)CCC(=O)OC(C)(C)C)c3ccc(S(=O)(=O)[O-])cc3C2(C)C)C(C)(C)c2cc(S(=O)(=O)O)ccc21 [B]
- QY, fluorescence quantum yield ([1]; Acetone): 0.4%
- λabs, position of the absorption maximum ([1]; Acetone): 660 nm
- λem, position of the emission maximum ([1]; Acetone): 683 nm
- QY, fluorescence quantum yield ([1]; Acetonitrile): 6.6%
- λabs, position of the absorption maximum ([1]; Acetonitrile): 658 nm
- λem, position of the emission maximum ([1]; Acetonitrile): 677 nm
- QY, fluorescence quantum yield ([1]; EtOH): 35.1%
- λabs, position of the absorption maximum ([1]; EtOH): 653 nm
- λem, position of the emission maximum ([1]; EtOH): 673 nm
- QY, fluorescence quantum yield ([1]; H2O): 7.6%
- λabs, position of the absorption maximum ([1]; H2O): 648 nm
- λem, position of the emission maximum ([1]; H2O): 666 nm
- QY, fluorescence quantum yield ([1]; MeOH): 33.0%
- λabs, position of the absorption maximum ([1]; MeOH): 650 nm
- λem, position of the emission maximum ([1]; MeOH): 673 nm
- Fluorescence turn-on [1]: 4.6

Structure (SMILES): C#CCNC(=O)CCNC(=O)CCC(=O)NCCOCCOCCNC(=O)CCC(=O)NCCOCCOCCNC(=O)CCC(=O)NCCOCCOCCNC(=O)CCCCCN1/C(=C/C=C/C=C/C2=[N+](CCOCCOCCOCCOCCOCCOCCOCCOC)c3ccc4ccccc4c3C2(C)C)C(C)(C)c2c1ccc1ccccc21.O=C([O-])C(F)(F)F [mCy5.5-PEG]
- QY, fluorescence quantum yield ([2]; 1,4-Dioxane): 59%
- λabs, position of the absorption maximum ([2]; 1,4-Dioxane): 689 nm
- λem, position of the emission maximum ([2]; 1,4-Dioxane): 712 nm
- QY, fluorescence quantum yield ([2]; DMF): 50%
- λabs, position of the absorption maximum ([2]; DMF): 686 nm
- λem, position of the emission maximum ([2]; DMF): 709 nm
- QY, fluorescence quantum yield ([2]; EtOH): 34%
- λabs, position of the absorption maximum ([2]; EtOH): 686 nm
- λem, position of the emission maximum ([2]; EtOH): 709 nm
- QY, fluorescence quantum yield ([2]; MeOH): 32%
- λabs, position of the absorption maximum ([2]; MeOH): 681 nm
- λem, position of the emission maximum ([2]; MeOH): 705 nm
- Difference in QY between organic solvents and water (turn-on response) [2]: < 2.7 fold
- QY, fluorescence quantum yield ([2]; Water): 22%
- λabs, position of the absorption maximum ([2]; Water): 679 nm
- λem, position of the emission maximum ([2]; Water): 700 nm
- Fluorescence maxima [2]: around 710 nm
- Absorption maxima ([2]; in water and in MeOH): around 680 nm

Structure (SMILES): COCCOCCOCCOCCOCCOCCOCCOCC[N+]1=C(/C=C/C=C/C=C2/N(CCCCCC(=O)NCCOCCOCCNC(=O)CCC(=O)NCCCC[C@H](NC(=O)CCC(=O)NCCOCCOCCNC(=O)CCCCCN3/C(=C/C=C/C=C/C4=[N+](CCOCCOCCOCCOCCOCCOCCOCCOC)c5ccc6ccccc6c5C4(C)C)C(C)(C)c4c3ccc3ccccc43)C(=O)NCCOCCOCCNC(=O)CCC(=O)NCCOCCOCCNC(=O)CCC(=O)OC(C)(C)C)c3ccc4ccccc4c3C2(C)C)C(C)(C)c2c1ccc1ccccc21 [Compound 5]
- QY, fluorescence quantum yield ([3]; Acetone): 25.0%
- λabs, position of the absorption maximum ([3]; Acetone): 683 nm
- λem, position of the emission maximum ([3]; Acetone): 708 nm
- QY, fluorescence quantum yield ([3]; Acetonitrile): 22.7%
- λabs, position of the absorption maximum ([3]; Acetonitrile): 681 nm
- λem, position of the emission maximum ([3]; Acetonitrile): 703 nm
- QY, fluorescence quantum yield ([3]; EtOH): 26.5%
- λabs, position of the absorption maximum ([3]; EtOH): 685 nm
- λem, position of the emission maximum ([3]; EtOH): 708 nm
- QY, fluorescence quantum yield ([3]; H2O): 0.4%
- λabs, position of the absorption maximum ([3]; H2O): 630 nm
- λem, position of the emission maximum ([3]; H2O): 708 nm
- QY, fluorescence quantum yield ([3]; MeOH): 21.1%
- λabs, position of the absorption maximum ([3]; MeOH): 682 nm
- λem, position of the emission maximum ([3]; MeOH): 708 nm
- Fluorescence turn-on ([3]; ratio of quantum yields in EtOH to that in water (200 nM), Cy5.5 dimers): 66

Structure (SMILES): C#CCNC(=O)CCNC(=O)CCC(=O)NCCOCCOCCNC(=O)CCC(=O)NCCOCCOCCNC(=O)[C@H](CCCCNC(=O)CCC(=O)NCCOCCOCCNC(=O)CCCCCN1/C(=C/C=C/C=C/C2=[N+](CCOCCOCCOCCOCCOCCOCCOCCOC)c3ccc4ccccc4c3C2(C)C)C(C)(C)c2c1ccc1ccccc21)NC(=O)CCC(=O)NCCOCCOCCNC(=O)CCCCCN1/C(=C/C=C/C=C/C2=[N+](CCOCCOCCOCCOCCOCCOCCOCCOC)c3ccc4ccccc4c3C2(C)C)C(C)(C)c2c1ccc1ccccc21.O=C([O-])C(F)(F)F.O=C([O-])C(F)(F)F [dCy5.5-PEG]
- QY, fluorescence quantum yield ([2]; 1,4-Dioxane): 28%
- λabs, position of the absorption maximum ([2]; 1,4-Dioxane): 689 nm
- λem, position of the emission maximum ([2]; 1,4-Dioxane): 718 nm
- QY, fluorescence quantum yield ([2]; DMF): 56%
- λabs, position of the absorption maximum ([2]; DMF): 685 nm
- λem, position of the emission maximum ([2]; DMF): 709 nm
- QY, fluorescence quantum yield ([2]; EtOH): 26%
- λabs, position of the absorption maximum ([2]; EtOH): 686 nm
- λem, position of the emission maximum ([2]; EtOH): 710 nm
- QY, fluorescence quantum yield ([2]; MeOH): 26%
- λabs, position of the absorption maximum ([2]; MeOH): 682 nm
- λem, position of the emission maximum ([2]; MeOH): 705 nm
- Difference in QY between organic solvents and water (turn-on response) [2]: up to 140 fold
- QY, fluorescence quantum yield ([2]; Water): 0.4%
- λabs, position of the absorption maximum ([2]; Water): 629 nm
- λem, position of the emission maximum ([2]; Water): 700 nm
- Fluorescence maxima [2]: around 710 nm
- Extinction coefficient, estimation for the dimer ([2]; open form (in MeOH), double of cyanine 2): 444 000 M^−1 cm^−1
